Reference: patent US11427544B2, “Histone deacetylase 6 inhibitors and use thereof” (TAIPEI MEDICAL UNIVERSITY, priority 2016, dated 2022)

Tests used:
HDAC1 = target: T1, HDAC1 (Homo sapiens, UniProt Q13547); experiment: Fluorogenic HDAC assay, HDAC1; assay type: biochemical; conditions: recombinant HDAC1; read-out: Enzyme IC50 HDAC1
T1 construct: purchased BPS Bioscience Corp
From the text: Of note, there are eighteen human HDACs. Eleven of them, designated as HDAC1-11, are zinc-dependent. Seven of them, designated as Sirt1-7, are NAD+-dependent.
Fluorogenic HDAC assay kits were used to assess the ability of HDAC inhibitors to inhibit deacetylation of lysine residues on a substrate by recombinant proteins HDAC1, 3, 4, 5, 6, 7, 8, 9 and Sirt1 according to the manufacturer's instructions (BPS Bioscience Corp., San Diego, Calif., USA).

[1] = system: A549 lung cancer cell line; experiment: Antiproliferative activity, A549; assay type: cell-based, human; conditions: Homo sapiens
Description: (§1) A study was conducted to evaluate the inhibitory activity of compounds of Formula (I) in inhibiting HDAC6, antiproliferative activity of test compounds in suppressing cancer cell growth, and selectivity of inhibiting HDAC6 over other HDAC isoforms.
(§2) The study was performed according to the protocol reported in Hsieh et al., Cell Death and Disease, 2014, April; 5:e1166.
(§3) Shown in Table 2 below are antiproliferative activities (measured by their half maximal concentration for inhibiting cell growth, i.e., GI50) of the test compounds against various cancer cell lines.

[2] = system: T98 Glioblastoma cell line; experiment: Antiproliferative activity, T98; assay type: cell-based, human; conditions: Homo sapiens, T98, T98
Description: as §1, §2, §3

[3] = system: acetyl-a-tubuline expression in RPMI8226, U266, and NCI-H929; experiment: Acetyl-a-tubuline expression in multiple myeloma cell lines (immunoblotting); assay type: cell-based, human
Description: A study was conducted to evaluate the activity of a compound of Formula (I) in increasing acetyl-a-tubuline expression in human multiple myeloma cell lines (RPMI8226, U266, and NCI-H929).
Cells (1×10^6) were incubated for 10 minutes at 4° C. in a lysis buffer solution in a culture vessel, and then scraped off the culture vessel, incubated on ice for another 10 minutes, and centrifuged at 17,000×g for 30 minutes at 4° C. Protein samples (80 μg) were electrophoresed on SDS gels and transferred onto a nitrocellulose membrane, which was blocked by incubation with 5% fat-free milk in phosphate-buffered saline (PBS) for 30 minutes at room temperature. Immunoblotting was performed by overnight incubation at 4° C. with primary antibodies in PBS, followed by incubation for 1 hour at room temperature with horseradish peroxidase (HRP)-conjugated secondary antibodies, then bound antibodies were measured using enhanced chemiluminescence (ECL) reagent (Advansta Corp., Menlo Park, Calif., USA) and exposure to photographic film.
The study was performed according to the protocol reported in Yang et al., Journal of Molecular Medicine, 2014, November; 92(11):1147-1158.

HDAC6-dynein binding = target: T2, HDAC6-dynein binding (Homo sapiens, UniProt Q9UBN7); experiment: HDAC6-dynein binding (immunoprecipitation, immunoblotting); assay type: cell-based; conditions: dose-dependent
T2 construct: endogenous in cells
T2 sequence (Q9UBN7 whole entry): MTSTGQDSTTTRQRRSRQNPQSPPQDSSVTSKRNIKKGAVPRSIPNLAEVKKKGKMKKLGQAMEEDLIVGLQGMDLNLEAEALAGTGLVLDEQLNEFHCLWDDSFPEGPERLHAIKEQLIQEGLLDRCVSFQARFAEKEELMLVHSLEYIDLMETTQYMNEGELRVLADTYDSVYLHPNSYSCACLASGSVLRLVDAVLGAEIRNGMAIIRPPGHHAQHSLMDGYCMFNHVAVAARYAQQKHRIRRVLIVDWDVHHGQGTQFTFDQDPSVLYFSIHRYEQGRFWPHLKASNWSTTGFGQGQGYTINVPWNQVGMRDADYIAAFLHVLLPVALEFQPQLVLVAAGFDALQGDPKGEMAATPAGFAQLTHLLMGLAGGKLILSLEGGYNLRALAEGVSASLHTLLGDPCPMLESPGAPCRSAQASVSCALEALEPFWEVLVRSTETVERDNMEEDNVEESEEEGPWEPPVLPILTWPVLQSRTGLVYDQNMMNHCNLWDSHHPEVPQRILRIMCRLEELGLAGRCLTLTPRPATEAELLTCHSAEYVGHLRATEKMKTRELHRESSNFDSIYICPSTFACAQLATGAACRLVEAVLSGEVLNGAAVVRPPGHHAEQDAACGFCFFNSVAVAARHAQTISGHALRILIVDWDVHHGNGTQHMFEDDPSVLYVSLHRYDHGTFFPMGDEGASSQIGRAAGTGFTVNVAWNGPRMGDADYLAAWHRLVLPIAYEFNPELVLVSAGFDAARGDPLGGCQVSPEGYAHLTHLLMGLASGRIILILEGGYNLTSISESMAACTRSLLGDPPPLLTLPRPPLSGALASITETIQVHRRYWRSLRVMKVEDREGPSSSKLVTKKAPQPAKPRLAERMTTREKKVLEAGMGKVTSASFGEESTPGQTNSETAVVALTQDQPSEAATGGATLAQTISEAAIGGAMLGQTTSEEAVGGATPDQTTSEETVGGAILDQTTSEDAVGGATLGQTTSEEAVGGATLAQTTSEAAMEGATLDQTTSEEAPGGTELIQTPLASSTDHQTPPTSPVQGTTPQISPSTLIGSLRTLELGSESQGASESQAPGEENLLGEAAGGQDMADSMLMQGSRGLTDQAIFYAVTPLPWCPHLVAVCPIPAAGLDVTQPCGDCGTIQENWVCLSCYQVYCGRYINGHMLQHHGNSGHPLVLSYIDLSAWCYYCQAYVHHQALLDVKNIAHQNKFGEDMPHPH
Description: A study was conducted to evaluate the activity of a compound of Formula (I) in inhibiting HDAC6-dynein binding and inducing accumulation of polyubiquited proteins.
Cell lysates were immunoprecipitated overnight at 4° C. with 1 μg of dynein antibody and A/G-agarose beads. The precipitated beads were washed three times with 1 mL of an ice-cold cell lysis buffer solution. The resulting immune complex was resolved by 10% SDS-PAGE gel electrophoresis, followed by immunoblotting assay using anti-HDAC6 Ab.
The study was performed according to the protocol reported in Chen et al., Journal of Immunology, 2008, 181(12):8441-8449.

[4] = system: APP in pCAX APP 695 plasmid-transfected Neuro 2a cells; experiment: Amyloid precursor protein (APP) levels, Western blot; assay type: cell-based; conditions: pCAX APP 695 transfected neuro 2a cells; 0.1-10 μM, 24 hours
Description: A study was conducted to evaluate the effect of compounds of Formula (I) in amyloid precursor protein (APP) levels and Aβ42 production.
Neuro 2a cells (1×10^6) in 6-well plates were transfected with pCAX APP 695 plasmid for 24 hours, then incubated for another 24 hours with Compound 12, Compound 28, or tubasatin A (0.1-10 μM). Cells were then harvested and cell lysates were prepared for Western blot analysis of the APP proteins.

[5] = system: HL-60 Acute promyelocytic leukemia; experiment: Tumor growth inhibition, HL-60 xenograft; assay type: in vivo, athymic nude mice; conditions: qd, intraperitoneal
Description: (§4) An in vivo study was conducted to evaluate the efficacy of compounds of Formula (I) in suppressing tumor growth in multiple human cancer types.
(§5) Eight-week-old athymic nude mice were group-housed under conditions of constant photoperiod (12 h light/12 h dark at 21-23° C. and 60-85% humidity) with ad libitum access to sterilized food and water. All animal experiments followed ethical standards, and protocols were reviewed and approved by the Animal Use and Management Committee of National Taiwan University. Each mouse was inoculated subcutaneously with 1×10^6˜1×10^7 human cancer cells in a total volume of 0.1 mL serum-free medium containing 50% Matrigel (BD Biosciences). As tumors became established (˜100 mm^3), mice were randomized to various groups to be treated with pre-determined materials (n=6-8/group): (i) control group: 0.5% DMSO/0.5% Cremophor/90% D5W and (ii) treatment groups: Compounds 12 and 28 at pre-determined doses daily. Mice received treatment by intraperitoneal injection for the duration of the study. Tumors were measured weekly using calipers. Tumor size, in mm^3, was calculated according to the formula: Tumor volume=(w^2×l)/2, where w and 1 respectively represent the width and length (both in mm) of the tumor.

HCT116 Colorectal = experiment: Tumor growth inhibition, HCT116 xenograft; assay type: in vivo, athymic nude mice; conditions: qd, intraperitoneal
Description: as §4, §5

[6] = system: scopolamine-induced memory deficit; experiment: Water maze test, scopolamine-treated rats; assay type: in vivo; conditions: gavage twice daily for seven days; scopolamine 1.5 mg/kg i.p.
Description: An in vivo study was conducted to evaluate the efficacy of compounds of Formula (I) in improving memory deficits associated with Alzheimer's disease.
(§6) Compound 12, Compound 28, suberanilohydroxamic acid (50 mg/kg) or vehicle was given to rats by gavage twice daily for seven days prior to behavioral experiments. On the day conducting a behavior assessment, rats in all groups except the control group were administered scopolamine (1.5 mg/kg) by intraperitoneal injection for 30 minutes before the assessment, then a water maze test or an elevated plus maze test was performed.

[7] = system: scopolamine-induced memory deficit; experiment: Elevated plus maze test, scopolamine-treated rats; assay type: in vivo; conditions: gavage twice daily for seven days; scopolamine 1.5 mg/kg i.p.
Description: as §6, with “An in vivo study was conducted to evaluate the efficacy of compounds of Formula (I) in improving memory deficits associated with Alzheimer's disease. Compound 12,” for “Compound 12,”, “was performed. […] The significant reduction in transfer latency time indicated improvement in memory.” for “was performed.”

T1 sequence (Q13547 whole entry): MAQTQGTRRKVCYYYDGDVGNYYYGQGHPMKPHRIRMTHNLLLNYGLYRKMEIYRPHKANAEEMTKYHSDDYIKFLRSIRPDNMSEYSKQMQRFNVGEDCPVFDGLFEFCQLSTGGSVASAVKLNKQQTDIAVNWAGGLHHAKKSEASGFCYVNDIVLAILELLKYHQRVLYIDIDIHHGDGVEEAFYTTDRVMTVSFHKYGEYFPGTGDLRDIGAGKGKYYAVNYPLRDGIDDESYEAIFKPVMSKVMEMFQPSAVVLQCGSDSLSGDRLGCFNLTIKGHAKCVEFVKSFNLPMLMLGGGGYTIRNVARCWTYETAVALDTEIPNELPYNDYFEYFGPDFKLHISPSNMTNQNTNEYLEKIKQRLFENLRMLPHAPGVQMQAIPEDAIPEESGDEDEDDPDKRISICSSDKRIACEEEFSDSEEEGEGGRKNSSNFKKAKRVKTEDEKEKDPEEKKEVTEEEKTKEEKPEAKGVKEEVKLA

O=C(NO)c1ccc(CNc2cccc3cccnc23)cc1 [Compound 28, N-hydroxy-4-((quinolin-8-ylamino)methyl)benzamide] was tested, and the IC50 (HDAC1) was 6.7 µM, the GI50 [1] was 5.24 ± 0.18 µM and the GI50 [2] was 9.89 ± 0.92 µM. For the same molecule, the acetyl-a-tubuline expression [3] was “increasing acetyl-a-tubuline expression in a dose-dependent manner”, the HDAC6-dynein binding (HDAC6-dynein binding) was “inhibited HDAC6-dynein binding” and the APP expression [4] was “markedly reduced the APP expression”. The “% TGI” value ([5]; 25 mg/kg) was 47.4%, the “% TGI” value ([5]; 50 mg/kg) was 61.1% and the “% TGI” value (HCT116 Colorectal; 50 mg/kg) was 9.1%. The “% TGI” value (HCT116 Colorectal; 100 mg/kg) was 44.4%, the “time spent in the correct quadrant (water maze)” value [6] was “markedly reverse this effect” and the “transfer latency time (elevated plus maze)” value [7] was “significantly rescued scopolamine-mediated increase of transfer latency time”.
